In PMC5829649, “The ribosomal A-site finger is crucial for binding and activation of the stringent factor RelA” (Nucleic Acids Research, 2018):

Tests used:
[1] = biological target: T1, RelA (Escherichia coli, UniProt P0AG20); assay: 3H-ppGpp synthesis assay (TLC) with purified RelA, pppGpp titration (activation), RelA alone or with starved ribosomal complexes; type: biochemical
T1 construct: untagged native full-length RelA
T1 sequence (P0AG20 1-744): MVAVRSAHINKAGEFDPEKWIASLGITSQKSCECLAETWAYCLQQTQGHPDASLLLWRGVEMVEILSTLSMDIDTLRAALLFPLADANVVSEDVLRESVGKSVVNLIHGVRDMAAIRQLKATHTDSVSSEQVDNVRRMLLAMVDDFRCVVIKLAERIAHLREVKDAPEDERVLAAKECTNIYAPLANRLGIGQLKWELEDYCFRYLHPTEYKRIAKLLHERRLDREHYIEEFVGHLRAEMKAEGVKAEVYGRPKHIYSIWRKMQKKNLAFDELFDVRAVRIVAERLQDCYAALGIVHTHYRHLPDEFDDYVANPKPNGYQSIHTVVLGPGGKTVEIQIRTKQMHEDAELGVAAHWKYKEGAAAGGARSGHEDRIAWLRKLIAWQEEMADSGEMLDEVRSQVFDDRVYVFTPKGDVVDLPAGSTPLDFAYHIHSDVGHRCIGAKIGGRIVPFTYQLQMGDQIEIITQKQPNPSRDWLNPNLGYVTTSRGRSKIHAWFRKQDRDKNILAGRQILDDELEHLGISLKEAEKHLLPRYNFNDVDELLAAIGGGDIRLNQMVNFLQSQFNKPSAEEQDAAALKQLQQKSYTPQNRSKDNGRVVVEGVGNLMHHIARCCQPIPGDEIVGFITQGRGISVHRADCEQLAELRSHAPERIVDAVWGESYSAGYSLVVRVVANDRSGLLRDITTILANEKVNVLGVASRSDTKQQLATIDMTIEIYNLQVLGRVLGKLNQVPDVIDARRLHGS

[2] = biological target: T1, RelA; assay: 3H-GTP conversion to pppGpp by purified RelA with ribosomes, TLC; type: biochemical
[3] = biological target: T1, RelA; assay: 3H-GDP conversion to ppGpp by purified RelA with vacant 70S or starved ribosomal complexes, TLC; type: biochemical
[4] = biological target: T1, RelA; assay: product of 3H-GDP conversion by purified RelA; added at […] it only mildly modulates activity; type: biochemical
[5] = biological target: T2, RelA (untagged native) (Escherichia coli DH5alpha, UniProt P0AG20 1-744); assay: EMSA; 70 nM RNA, up to 60x excess RelA; weak binding (KD above 3 uM) not excluded; HEPES:Polymix buffer, 5 mM Mg2+, pH 7.5, 37 C; conditions: protein: recombinant; tags: none; hairpin
T2 sequence: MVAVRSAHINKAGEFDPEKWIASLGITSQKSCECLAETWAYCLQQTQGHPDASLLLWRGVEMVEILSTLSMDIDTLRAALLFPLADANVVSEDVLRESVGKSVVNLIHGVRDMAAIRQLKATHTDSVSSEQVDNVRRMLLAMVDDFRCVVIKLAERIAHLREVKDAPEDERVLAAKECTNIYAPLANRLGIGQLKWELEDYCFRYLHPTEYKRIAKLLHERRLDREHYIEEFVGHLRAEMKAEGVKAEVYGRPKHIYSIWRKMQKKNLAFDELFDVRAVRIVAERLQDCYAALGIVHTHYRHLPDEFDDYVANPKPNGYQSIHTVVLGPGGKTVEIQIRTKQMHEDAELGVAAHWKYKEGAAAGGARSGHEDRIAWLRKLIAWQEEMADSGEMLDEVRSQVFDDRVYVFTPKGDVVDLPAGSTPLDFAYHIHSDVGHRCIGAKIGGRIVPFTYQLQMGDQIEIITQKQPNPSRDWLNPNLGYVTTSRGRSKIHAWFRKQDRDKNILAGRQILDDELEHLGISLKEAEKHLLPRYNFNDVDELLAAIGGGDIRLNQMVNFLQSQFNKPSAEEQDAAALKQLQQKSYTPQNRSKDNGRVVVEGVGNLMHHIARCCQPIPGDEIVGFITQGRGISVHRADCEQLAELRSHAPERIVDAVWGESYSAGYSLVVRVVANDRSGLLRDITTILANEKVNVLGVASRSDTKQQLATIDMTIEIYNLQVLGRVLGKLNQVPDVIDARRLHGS

With Nc1nc2c(ncn2[C@@H]2O[C@H](COP(=O)(O)OP(=O)(O)OP(=O)(O)O)[C@@H](OP(=O)(O)OP(=O)(O)O)[C@H]2O)c(=O)[nH]1 [pppGpp] the EC50 [1] was 500 to 600 nM.

In the case of Nc1nc2c(ncn2[C@@H]2O[C@H](COP(=O)(O)OP(=O)(O)OP(=O)(O)O)[C@@H](O)[C@H]2O)c(=O)[nH]1 [GTP], the “3H-GTP conversion to pppGpp by purified RelA with ribosomes, TLC” value [2] is reported as 896 ± 29 pppGpp reactions per RelA per minute.

With Nc1nc2c(ncn2[C@@H]2O[C@H](COP(=O)(O)OP(=O)(O)O)[C@@H](O)[C@H]2O)c(=O)[nH]1 [GDP] the “3H-GDP conversion to ppGpp by purified RelA with vacant 70S or starved ribosomal” value [3] was 1077±62 ppGpp per RelA per minute.

With Nc1nc2c(ncn2[C@@H]2O[C@H](COP(=O)(O)OP(=O)(O)O)[C@@H](OP(=O)(O)OP(=O)(O)O)[C@H]2O)c(=O)[nH]1 [ppGpp] the “product of 3H-GDP conversion by purified RelA; added at 100 μM it only mildly mo” value [4] was “When GTP is used as a substrate, ppGpp acts as a weak inhibitor”.

UCGGCAAGGGGGUCAUCCCGACUUACCAACCCGA (structured_RNA) [ASF RNA oligonucleotide (23S rRNA H38, 34 nt)]: no binding [5].
